Source: article PMC11901700, “A Sweet Almond Globulin Multifunctional Peptide: Identification, In Silico Screening, Restraint Mechanisms to Keap1 and ACE, and Antihypertensive and Ferrous Transport Efficiency” (Nutrients, 2025)
pIC50: −log10 of the molar value. Where no end group is shown, it is not given here.

Assays:
ACE (from rabbit lungs) = target: T1, ACE (from rabbit lungs) (Oryctolagus cuniculus, UniProt P12822); assay: ACE inhibitory ability (hippuric acid method); format: biochemical; conditions: hippuric acid method, HHL substrate, absorbance at 228 nm; N = 3; read-out: ACE inhibitory activity (IC50)
T1 construct: ACE (0.1 U, from rabbit lungs, purity > 99.7%, CAS: 9015-82-1) was obtained from Sigma-Aldrich; purchased Sigma-Aldrich (St. Louis, MO, USA); host or cells: rabbit lung tissue
T1 sequence (P12822 34-1310): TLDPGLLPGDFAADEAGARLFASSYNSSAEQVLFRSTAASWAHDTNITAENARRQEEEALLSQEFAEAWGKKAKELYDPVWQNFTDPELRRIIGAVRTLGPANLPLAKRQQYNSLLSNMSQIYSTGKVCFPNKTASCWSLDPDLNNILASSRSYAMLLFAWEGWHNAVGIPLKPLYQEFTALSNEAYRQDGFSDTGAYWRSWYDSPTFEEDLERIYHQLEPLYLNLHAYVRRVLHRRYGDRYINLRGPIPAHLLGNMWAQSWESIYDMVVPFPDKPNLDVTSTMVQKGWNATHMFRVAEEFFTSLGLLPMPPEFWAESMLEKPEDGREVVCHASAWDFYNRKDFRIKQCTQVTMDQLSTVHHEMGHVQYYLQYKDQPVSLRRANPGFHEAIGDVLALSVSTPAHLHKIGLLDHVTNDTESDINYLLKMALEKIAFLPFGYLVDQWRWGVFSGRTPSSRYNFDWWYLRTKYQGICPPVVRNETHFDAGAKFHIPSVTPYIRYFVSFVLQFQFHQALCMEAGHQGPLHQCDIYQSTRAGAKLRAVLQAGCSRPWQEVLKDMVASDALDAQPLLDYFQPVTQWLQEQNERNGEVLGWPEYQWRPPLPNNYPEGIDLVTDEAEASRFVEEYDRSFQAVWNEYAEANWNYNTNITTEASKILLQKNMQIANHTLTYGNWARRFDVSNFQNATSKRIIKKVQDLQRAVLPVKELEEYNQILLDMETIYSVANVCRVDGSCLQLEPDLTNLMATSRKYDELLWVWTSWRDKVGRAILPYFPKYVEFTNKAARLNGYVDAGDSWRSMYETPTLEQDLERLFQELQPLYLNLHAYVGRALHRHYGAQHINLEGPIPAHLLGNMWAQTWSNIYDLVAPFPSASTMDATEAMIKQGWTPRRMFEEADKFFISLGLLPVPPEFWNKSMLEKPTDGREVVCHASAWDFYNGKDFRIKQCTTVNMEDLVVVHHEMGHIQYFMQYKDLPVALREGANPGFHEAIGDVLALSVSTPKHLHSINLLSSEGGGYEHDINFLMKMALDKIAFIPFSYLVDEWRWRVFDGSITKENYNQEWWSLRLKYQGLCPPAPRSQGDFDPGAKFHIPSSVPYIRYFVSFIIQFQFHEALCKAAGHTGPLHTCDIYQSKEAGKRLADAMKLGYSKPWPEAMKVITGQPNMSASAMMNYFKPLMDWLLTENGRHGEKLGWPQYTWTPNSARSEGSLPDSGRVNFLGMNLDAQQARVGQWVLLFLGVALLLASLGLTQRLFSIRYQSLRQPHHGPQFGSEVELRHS
Source text: The hippuric acid method was used to measure the samples’ inhibitory ability towards ACE, following the same procedures as Zheng et al.. The absorbance at 228 nm was the hippuric acid content and represented ACE activity; therefore, the inhibitory ability of samples towards ACE was defined as the percentage of reduction in the absorption at 228 nm between the control and sample groups. Moreover, the ACE inhibitory kinetic of SAGH peptides was investigated by employing a Lineweaver–Burk plot with N-hippuryl-L-histidyl-L-leucine (HHL, 0.13–1.32 mmol/L) as the substrate.
As described by Wu et al., the simulative gastric digestive fluid consisted of sodium chloride (0.18 mol/L), ultrapure water (180 mL), and 0.40 mg/mL of pepsin. The simulation intestinal digestive juice was composed of NaHCO3, ([…]), bile salt (3 g/100 mL), pancreatin (0.35 mg/mL), and 180 mL of ultrapure water. The antihypertensive and antioxidant SAGH peptides (5 mg/mL, 60 mL) were first hydrolyzed using 150 mL of simulative gastric fluid at 37 °C and 140 rpm for 90 min. The mixture was adjusted to pH 7.0, and 180 mL of the simulative intestinal hydrolysis fluid was added and stirred at 37 °C for 2 h. After boiling for 6 min, the mixture was cooled with running water to room temperature. The ACE inhibition capacity and antioxidant ability of the treated SAGH peptides were detected and compared to those of the […] SAGH peptides.

[1] = tested on: spontaneously hypertensive rats (SHRs); assay: Effects on blood pressures of spontaneously hypertensive rats; format: in vivo, rat
Experimental: Spontaneously hypertensive rats (SHRs, each weighting approximately 250 g, 14 weeks old) were obtained from Vitonglihua Test Animal Biotech. Co., Ltd. (Beijing, China) and used to investigate the hypotensive ability of ACE inhibitory and antioxidant SAGH peptides. After 7 days of adaptation, the SHRs were assigned to the blank, positive, SAGH peptides, and SAGH peptide–ferrous chelate groups (each group contained six SHRs), which were orally administered NaCl ([…]), captopril (14 mg per body weight kg), peptides (50, 150, and 200 mg per body weight kg), and peptide–ferrous chelates (50, 150, and 200 mg per body weight kg) every day, respectively. At 0, 120, 360, and 600 min after oral administration, the systolic and diastolic blood pressures and heart rates of the SHRs were measured using a NIBP-M1 Rat-tail noninvasive blood pressure monitor (Yuyan Scientific Instrument Co., Ltd., Shanghai, China) following the tail cuff method.

pIC50 (ACE (from rabbit lungs)): 3.94
Substance: PMYGGGMV–ferrous chelate: chelate prepared by reacting the peptide with FeCl2 at pH 6.5 (also: ferrous iron chelate (reaction with FeCl2))
dose dependence of blood pressure lowering effect ([1]; oral, 50, 150 and 200 mg/kg body weight, p > 0.05): not dose-dependent
effect on diastolic and systolic blood pressures ([1]; oral, 50–200 mg/kg body weight, from 1 h of dosing, tail cuff method, p < 0.05): apparently lowered the diastolic and systolic blood pressures
